Values joined by “and” are separate entries in the source; they are usually repeats but may differ in a detail not shown here. Identical values can stand only once. Inconclusive results and toxic doses are left out.
Tested on: P388 leukemia ip, CD2F1 mice, survival T/C
Test: NCI In Vivo Anticancer Drug Screen. Data for tumor model P388 Leukemia (intraperitoneal) in CD2F1 (CDF1) mice
Conditions: endpoint: median survival time, higher = longer survival
Outline: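 Mice carrying the transplanted tumor received test compound or vehicle. Survival was recorded in each group, and the value is the treated-group measurement divided by that of the vehicle-treated control group.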

[1] = dose: 100.0 mg/kg/injection, schedule: Q01DX001 (ip), vehicle: saline
[2] = dose: 200.0 mg/kg/injection, schedule: Q01DX001 (ip), vehicle: saline
[3] = dose: 400.0 mg/kg/injection, schedule: Q01DX001 (ip), vehicle: saline
[4] = dose: 60.0 mg/kg/injection, schedule: Q01DX005 (ip), vehicle: saline with Tween-80
[5] = dose: 120.0 mg/kg/injection, schedule: Q01DX005 (ip), vehicle: saline with Tween-80
[6] = dose: 240.0 mg/kg/injection, schedule: Q01DX005 (ip), vehicle: saline with Tween-80
[7] = dose: 50.0 mg/kg/injection, schedule: Q01DX005 (ip), vehicle: Klucel (hydroxypropylcellulose) (HPC)
[8] = dose: 100.0 mg/kg/injection, schedule: Q01DX005 (ip), vehicle: Klucel (hydroxypropylcellulose) (HPC)
[9] = dose: 200.0 mg/kg/injection, schedule: Q01DX005 (ip), vehicle: Klucel (hydroxypropylcellulose) (HPC)
[10] = dose: 50.0 mg/kg/injection, schedule: Q01DX005 (ip), vehicle: saline with Tween-80
[11] = dose: 100.0 mg/kg/injection, schedule: Q01DX005 (ip), vehicle: saline with Tween-80
[12] = dose: 200.0 mg/kg/injection, schedule: Q01DX005 (ip), vehicle: saline with Tween-80
[13] = dose: 100.0 mg/kg/injection, schedule: Q01DX009 (ip), vehicle: saline
[14] = dose: 50.0 mg/kg/injection, schedule: Q04DX003 (ip), vehicle: saline
[15] = dose: 50.0 mg/kg/injection, schedule: Q01DX009 (ip), vehicle: Klucel (hydroxypropylcellulose) (HPC)
[16] = dose: 50.0 mg/kg/injection, schedule: Q01DX009 (ip), vehicle: saline
[17] = dose: 12.5 mg/kg/injection, schedule: Q01DX005 (ip), vehicle: Klucel (hydroxypropylcellulose) (HPC)
[18] = dose: 25.0 mg/kg/injection, schedule: Q01DX005 (ip), vehicle: Klucel (hydroxypropylcellulose) (HPC)

## COc1ccc(CS(=O)(=O)c2cnc(N3CCN(C)CC3)nc2N)cc1OC
[1]
  T/C: 101 % of control
[2]
  T/C: 98 % of control
[3]
  T/C: 98 % of control

## [Mn+2].[Mn+2].c1ccc2c(c1)-c1nc-2nc2[n-]c(nc3nc(nc4[n-]c(n1)c1ccccc41)-c1ccccc1-3)c1cc3c4nc5nc(nc6[n-]c(nc7nc(nc([n-]4)c3cc21)-c1ccccc1-7)c1ccccc61)-c1ccccc1-5
[4]
  T/C: 96 % of control
[5]
  T/C: 99 % of control
[6]
  T/C: 106 % of control

## O=C([O-])c1ccccc1[O-].[Cu+2].c1cnc2c(c1)ccc1cccnc12
dose: 100.0 mg/kg/injection, schedule: Q04DX002 (ip), vehicle: Klucel (hydroxypropylcellulose) (HPC)
  T/C: 109 % of control

## O=C1C=CC(=O)C(c2ccc(Cl)cc2)=C1
dose: 12.5 mg/kg/injection, schedule: Q01DX009 (ip), vehicle: saline with Tween-80
  T/C: 98 % of control
dose: 25.0 mg/kg/injection, schedule: Q01DX009 (ip), vehicle: saline with Tween-80
  T/C: 90 % of control
dose: 100.0 mg/kg/injection, schedule: Q01DX009 (ip), vehicle: saline with Tween-80
  T/C: 90 % of control

## Clc1nc(C(Cl)Cl)nc2sc3c(c12)CCCC3
[4]
  T/C: 98 % of control
[5]
  T/C: 94 % of control
[6]
  T/C: 96 % of control

## CC(C)C(=O)CC(c1ccccc1)P(=O)(c1ccccc1)c1ccccc1 (stereo unspecified)
[7]
  T/C: 102 % of control
[8]
  T/C: 103 % of control
[9]
  T/C: 103 % of control

## CCN(CC)CCOC1C=C(C)C2CC1C2(C)C (stereo unspecified)
dose: 50.0 mg/kg/injection, schedule: Q01DX005 (ip), vehicle: saline
  T/C: 101 % of control
dose: 100.0 mg/kg/injection, schedule: Q01DX005 (ip), vehicle: saline
  T/C: 101 % of control

## CC1(C)CN(Cc2ccccc2)CCOC1N1CCOCC1 (stereo unspecified)
[10]
  T/C: 93 % of control
[11]
  T/C: 101 % of control
[12]
  T/C: 115 % of control

## O=C(O)C(Cc1cccc(F)c1)NC(=O)C(F)(F)F (stereo unspecified)
dose: 6.25 mg/kg/injection, schedule: Q01DX009 (ip), vehicle: saline
  T/C: 98 % of control

## CC(=O)c1nc2c(N)nc(N)nc2nc1C
dose: 25.0 mg/kg/injection, schedule: Q04DX003 (ip), vehicle: saline with Tween-80
  T/C: 96 % of control
dose: 50.0 mg/kg/injection, schedule: Q04DX003 (ip), vehicle: saline with Tween-80
  T/C: 96 % of control
dose: 100.0 mg/kg/injection, schedule: Q04DX003 (ip), vehicle: saline with Tween-80
  T/C: 96 % of control

## O=C(Nc1ccc(S(=O)(=O)O)cc1)c1ccc([N+](=O)[O-])cc1
[13]
  T/C: 100 % of control
dose: 400.0 mg/kg/injection, schedule: Q01DX009 (ip), vehicle: saline
  T/C: 109 % of control

## C[O][Sn]([O][Sn]([Cl])([c]1ccccc1)[c]1ccccc1)([c]1ccccc1)[c]1ccccc1
[14]
  T/C: 177 % of control
dose: 100.0 mg/kg/injection, schedule: Q04DX003 (ip), vehicle: suspension in saline
  T/C: 106 % of control

## CCS(=O)(=O)OCCCNCCCOS(=O)(=O)CC
dose: 12.5 mg/kg/injection, schedule: Q01DX001 (ip), vehicle: saline
  T/C: 124 % of control
dose: 12.5 mg/kg/injection, schedule: Q04DX003 (ip), vehicle: saline
  T/C: 154 % of control
dose: 25.0 mg/kg/injection, schedule: Q01DX001 (ip), vehicle: saline
  T/C: 86 % of control
dose: 25.0 mg/kg/injection, schedule: Q01DX009 (ip), vehicle: saline
  T/C: 215 % of control
dose: 25.0 mg/kg/injection, schedule: Q04DX003 (ip), vehicle: saline
  T/C: 160 % of control
[15]
  T/C: 201 % of control
[16]
  T/C: 268 % of control
[14]
  T/C: 193 % of control
[1]
  T/C: 156 % of control
dose: 100.0 mg/kg/injection, schedule: Q01DX009 (ip), vehicle: Klucel (hydroxypropylcellulose) (HPC)
  T/C: 199 % of control
[13]
  T/C: 277 % of control
dose: 100.0 mg/kg/injection, schedule: Q04DX003 (ip), vehicle: saline
  T/C: 209 % of control
[2]
  T/C: 173 % of control
dose: 200.0 mg/kg/injection, schedule: Q01DX009 (ip), vehicle: Klucel (hydroxypropylcellulose) (HPC)
  T/C: 94 % of control
dose: 200.0 mg/kg/injection, schedule: Q01DX009 (ip), vehicle: saline
  T/C: 175 % of control
dose: 200.0 mg/kg/injection, schedule: Q04DX003 (ip), vehicle: saline
  T/C: 272 % of control
[3]
  T/C: 181 % of control

## NC(CCl)=NCc1ccccc1
dose: 7.5 mg/kg/injection, schedule: Q01DX005 (ip), vehicle: saline
  T/C: 99 % of control
dose: 15.0 mg/kg/injection, schedule: Q01DX005 (ip), vehicle: saline
  T/C: 96 % of control
dose: 30.0 mg/kg/injection, schedule: Q01DX005 (ip), vehicle: saline
  T/C: 111 % of control

## CCCCC(CCC)(CCN)CCCC
dose: 3.0 mg/kg/injection, schedule: Q01DX009 (ip), vehicle: saline
  T/C: 95 % of control
dose: 6.0 mg/kg/injection, schedule: Q01DX009 (ip), vehicle: saline
  T/C: 100 % of control
dose: 12.0 mg/kg/injection, schedule: Q01DX009 (ip), vehicle: saline
  T/C: 104 % of control

## S=C(Nc1ccc(Cl)cc1)Nc1ncccn1
dose: 12.5 mg/kg/injection, schedule: Q01DX009 (ip), vehicle: Klucel (hydroxypropylcellulose) (HPC)
  T/C: 98 % of control
dose: 25.0 mg/kg/injection, schedule: Q01DX009 (ip), vehicle: Klucel (hydroxypropylcellulose) (HPC)
  T/C: 103 % of control
[15]
  T/C: 100 % of control and 97 % of control

## Cc1nn(-c2ccccc2)c2c1S(=O)(=O)c1ccccc1-2
[10]
  T/C: 91 % of control
[11]
  T/C: 89 % of control
[12]
  T/C: 88 % of control

## C(=N[C@H]1CCCC[C@H]1N=Cc1ccc[nH]1)c1ccc[nH]1
dose: 6.25 mg/kg/injection, schedule: Q01DX005 (ip), vehicle: saline with Tween-80
  T/C: 99 % of control
dose: 12.5 mg/kg/injection, schedule: Q01DX005 (ip), vehicle: saline with Tween-80
  T/C: 101 % of control
dose: 25.0 mg/kg/injection, schedule: Q01DX005 (ip), vehicle: saline with Tween-80
  T/C: 100 % of control
[11]
  T/C: 86 % of control

## O=C(O)c1cccc2c1Cc1ccccc1-2
[7]
  T/C: 94 % of control
[8]
  T/C: 92 % of control
[9]
  T/C: 88 % of control

## COc1ccc(C2C(C(=O)OCc3ccccc3)=C(C)NC(C)=C2C(=O)OCc2ccccc2)cc1
dose: 0.78 mg/kg/injection, schedule: Q01DX009 (ip), vehicle: distilled water + Tween-80
  T/C: 98 % of control
dose: 1.56 mg/kg/injection, schedule: Q01DX009 (ip), vehicle: distilled water + Tween-80
  T/C: 93 % of control
dose: 3.13 mg/kg/injection, schedule: Q01DX009 (ip), vehicle: distilled water + Tween-80
  T/C: 88 % of control and 93 % of control
dose: 6.25 mg/kg/injection, schedule: Q01DX009 (ip), vehicle: distilled water + Tween-80
  T/C: 92 % of control
dose: 12.5 mg/kg/injection, schedule: Q01DX009 (ip), vehicle: distilled water + Tween-80
  T/C: 87 % of control and 92 % of control
dose: 25.0 mg/kg/injection, schedule: Q01DX009 (ip), vehicle: distilled water + Tween-80
  T/C: 95 % of control

## CCOc1ccc(C(/C(Cl)=N/O)C(Cl)(Cl)Cl)cc1 (stereo unspecified)
[17]
  T/C: 96 % of control
[18]
  T/C: 91 % of control
[7]
  T/C: 100 % of control

## COC(=O)CC1C=CC(OC)[C@@]2(C)C(=O)C(OC)=CC(=O)[C@@H]12 (stereo partly specified)
[4]
  T/C: 101 % of control
[5]
  T/C: 105 % of control
[6]
  T/C: 91 % of control

## CSC(SC)(C(=O)O)c1cc(-c2c(Cl)cccc2Cl)no1
[4]
  T/C: 93 % of control
[5]
  T/C: 102 % of control

## COc1cc2c(cc1C(C)c1ccc(O)cc1)OCO2 (stereo unspecified)
dose: 50.0 mg/kg/injection, schedule: Q01DX005 (ip), vehicle: distilled water + Tween-80
  T/C: 100 % of control
dose: 100.0 mg/kg/injection, schedule: Q01DX005 (ip), vehicle: distilled water + Tween-80
  T/C: 97 % of control
dose: 200.0 mg/kg/injection, schedule: Q01DX005 (ip), vehicle: distilled water + Tween-80
  T/C: 96 % of control

## CCN(CC)CCCNc1c(OC)cc(C)c2sc3ccccc3c(=O)c12
[16]
  T/C: 102 % of control

## COC(=O)c1ccc(N=NN(C)CN=[N+]=[N-])cc1
[17]
  T/C: 106 % of control
[18]
  T/C: 124 % of control
[8]
  T/C: 160 % of control and 172 % of control
